In patent US20140113014A1, “CHICORY FOR PREVENTION AND TREATMENT OF NEURODEGENERATION” (NESTEC S.A., priority 2011, published 2014):

System: primary cortical neurons
Assay: Primary cortical neuron aging model, neuronal survival by NeuN count
Format: cell-based, rat
Details: run in parallel with the chicory extract
Excerpt: A primary cortical culture system to study the effects of compounds on neuronal aging has been developed and applied to study the effects of chicory on neuronal survival. This cell culture system has been developed as a model of neuronal aging in order to mimic processes which occur during normal aging of neurons without a neurotoxic challenge. With this model beneficial effects against physiological neurodegeneration during aging can be studied and compounds which increase neuronal survival can be identified. This is a different approach from the models described in the prior art in which the cells are challenged with a neurotoxic insult in order to induce different degrees of neurodegeneration. Using immune-cytochemical analysis of the antigen, NeuN (Neuronal Nuclei), which is a sensitive marker of neurodegeneration, a reliable method for examining the lifespan of cortical neurons in culture has been established. The sensitivity of NeuN can be attributed to its steady reduction in expression intensity as neurons degenerate, which is in contrast to many antigens whose expression can distinguish only between living and dead neurons. Between four and six weeks after plating, the cortical neurons begin to degenerate, leading to a […] in NeuN count over this time (FIG. 1A). […] All tests were fixed at a time point between 6 and 8 weeks. […]

## O=C(Nc1cccc([N+](=O)[O-])c1)c1cccc(S(=O)(=O)N2CCCCCC2)c1 [AK-1]
  neuroprotective effect of the positive control relative to the chicory extract: smaller neuroprotective effect than the chicory extract
  neuroprotective effect of the positive control versus non-treated cells: significantly positive over non-treated cells
